Experimental data as given in US8372951B2, “Cell penetrating peptides for intracellular delivery” (National Tsing Hua University, priority 2010, dated 2013).
“Also recorded” adds a separate entry of the source. Residues, ends and D or L forms follow the SMILES beside them. No end group written: not given here. *: point of attachment. FITC = O=C1OC2(c3ccc(O)cc3Oc3cc(O)ccc32)c2ccc(NC(=S)*)cc21

Columns and labels:
Assay type in all cases: cell-based
[1] = test system: AGS; test: MTT cell viability assay; conditions: 24 h
Description: (§1) FIG. 7 illustrates in vitro delivery of peptidomimetic drug. (A). Cell viability assay. Beas-2B cells were incubated with 50 μM (KLAKLAK)2-ECP(32-41), ECP(32-41), or (KLAKLAK)2, at 37° C. for 24 h. Effects of (KLAKLAK)2-ECP(32-41) on the cell viability of Beas-2B, A549 and CHO-K1 cells (B), as well as Caco-2 and AGS cells (C). Cell viability in each group was determined by MTT assay and each experiment was performed in triplicate.
(§2) The cytotoxic effect of peptides on the cell growth were determined by a colorimetric assay using 3-(4,5-dimethylthiazol-2-yl)-2,5-diphenyltetrazolium bromide (MTT) (US Biological, Marblehead, Mass.). Cells were plated in a 96-well plate (1.0×10^4 cells/well) and incubated at 37° C. overnight. Each sample was incubated with the indicated concentration (1-100 μM) of peptide. Twenty-four hours after treatment with the indicated peptide, MTT was added, and cell growth was monitored at A570 to measure the mitochondrial-dependent formation of a colored product.

[2] = test system: A549; test: MTT cell viability assay; conditions: A549, 24 h
Description: as §1, §2

[3] = test system: Caco-2; test: MTT cell viability assay; conditions: Caco-2, 24 h
Description: as §1, §2

[4] = test system: CHO-K1; test: MTT cell viability assay; conditions: CHO-K1, 24 h
Description: as §1, §2

[5] = test system: Beas-2B cells; test: MTT cell viability assay; conditions: for cytotoxicity / cell death: Beas-2B cells, 24 h, MTT
Description: as §1, §2

[6] = test system: Beas-2B cells; test: Flow cytometry of cellular uptake of fluorescence-labeled peptides/proteins; conditions: 37° C., 30 min; for cellular uptake of peptide cargo: 5 μM
Description: FIG. 2 illustrates cellular uptake of ECP(32-41). Beas-2B cells were incubated with 20 μM FITC (control) or FITC-ECP(32-41) at 37° C. for 30 min. After treatment, the cells were washed with 500 μl phosphate buffered saline (PBS) and treated with trypsin at 37° C. for 10 min to remove adherent extracellular peptides. The cells were resuspended in 500 μl PBS and analyzed by flow cytometry. The cellular uptake activity was expressed as mean fluorescence intensity (MFI) using FACScalibur (BD Biosciences, Franklin Lakes, N.J.) flow cytometer (FACS). The data represented the means of triplicate incubations.
FIG. 5 illustrates in vitro delivery of peptide. Beas-2B cells were incubated with 5 μM FITC (control), FITC-Dp2 or FITC-Dp2-ECP(32-41) at 37° C. for 1 h. After treatment, cells were washed with 500 μl PBS and treated with trypsin at 37° C. for 10 min to remove adherent extracellular peptides. The cells were resuspended in 500 μl PBS and analyzed by flow cytometry. The cellular uptake activity was expressed as mean fluorescence intensity (MFI) using FACScalibur (BD Biosciences, Franklin Lakes, N.J.) flow cytometer (FACS). The data represented the means of triplicate incubations.
FIG. 6 illustrates in vitro delivery of protein. […] The cells were resuspended in 500 μl PBS and analyzed by flow cytometry. The cellular uptake activity was expressed as mean fluorescence intensity (MFI) using FACScalibur (BD Biosciences, Franklin Lakes, N.J.) flow cytometer (FACS). […]
Cells (2.0×10^5 cells/well) were plated into a 6-well microplate and cultured for 24 h in RPMI 1640 medium containing 10% heat-inactivated bovine serum (Beas-2B). After complete adhesion, the cells were incubated at 37° C. with fluorescence-labeled peptides dissolved in fresh serum-containing medium prior to washing with PBS. […] The washing cycle was repeated again and the cells were suspended in PBS and subjected to fluorescence analysis on a FACScalibur (BD Biosciences, Franklin Lakes, N.J.) flow cytometer (FACS) using 488-nm laser excitation and a 515-545-nm emission filter. […]

[7] = test system: Beas-2B cells; test: Confocal microscopy of cellular uptake and intracellular distribution; conditions: for entry into Beas-2B cells (minimal length requirement): 5 μM FITC-labeled peptide, 30 min
Description: FIG. 3 illustrates intracellular distribution of cell-penetrating ECP(32-41). Beas-2B cells were incubated with 5 μM FITC-ECP(32-41) at 37° C. for 5 or 60 min. After wash with 1 ml PBS buffer twice, the cellular uptake was analyzed by confocal laser scanning microscopy. Magnification ford: 63×. Scale bar: 50
FIG. 4 illustrates minimal length requirement of cell penetration peptide. Beas-2B cells were incubated with 5 μM FITC-ECP(32-41), FITC-ECP(32-41)D1, and FITC-ECP(32-41)D2 separately at 37° C. for 30 min. After wash with 1 ml PBS buffer twice, the cellular uptake was analyzed by confocal laser scanning microscopy. Magnification fold: 40×. Scale bar: 50
Cells (1.0×10^4 cells/well) were plated on 18-mm glass-bottomed dishes (Marienfeld, Germany) and cultured in medium containing 10% heat-inactivated fetal bovine serum for 24 h. After complete adhesion, the cell culture medium was removed, and then incubated at 37° C. in fresh medium containing the fluorescence-labeled peptides. The cells were washed with PBS, then fixed by 2% (w/v) paraformaldehyde (PFA) in PBS for 15 min, and 50 mM ammonium chloride in PBS was added to quench with fluoresce from PFA. Distribution of the fluorescence-labeled peptides in the cells was analyzed using a confocal scanning laser microscope (Zeiss).

## CC(C)C[C@H](NC(=O)[C@H](CCCCN)NC(=O)[C@H](C)NC(=O)[C@H](CC(C)C)NC(=O)[C@H](CCCCN)NC(=S)Nc1ccc2c(c1)C(=O)OC21c2ccc(O)cc2Oc2cc(O)ccc21)C(=O)N[C@@H](C)C(=O)N[C@@H](CCCCN)C(=O)N[C@@H](CCCCN)C(=O)N[C@@H](CC(C)C)C(=O)N[C@@H](C)C(=O)N[C@@H](CCCCN)C(=O)N[C@@H](CC(C)C)C(=O)N[C@@H](C)C(=O)N[C@@H](CCCCN)C(=O)N[C@@H](CC(N)=O)C(=O)N[C@@H](Cc1ccc(O)cc1)C(=O)N[C@@H](CCCNC(=N)N)C(=O)N[C@@H](Cc1c[nH]c2ccccc12)C(=O)N[C@@H](CCCNC(=N)N)C(=O)N[C@@H](CS)C(=O)N[C@@H](CCCCN)C(=O)N[C@@H](CC(N)=O)C(=O)N[C@@H](CCC(N)=O)C(=O)N[C@@H](CC(N)=O)C(=O)O [(KLAKLAK)2-ECP(32-41)] ({FITC}-KLAKLAKKLAKLAKNYRWRCKNQN-OH; N-terminus and C-terminus assumed)
[1]
  cytotoxicity (cell viability): strong cytotoxicity
[2]
  cytotoxicity (cell viability): strong cytotoxicity
[3]
  cytotoxicity (cell viability): strong cytotoxicity
[4]
  cytotoxicity (cell viability): strong cytotoxicity
[5]; listed as FITC-(KLAKLAK)2-ECP(32-41)
  cytotoxicity / cell death: induce markedly cell death; also recorded: strong cytotoxicity

## (KLAKLAK)2: previously reported proapoptotic domain, peptidomimetic, SEQ ID NO: 6 (KLAKLAKKLAKLAK; (KLAKLAK)2) [reference compound]
[5]; stated with the Beas-2B viability results (FIG. 7A)
  cell-penetrating activity: lacking

## Dp2-ECP(32-41): recombinant Dp2 peptide fused with ECP(32-41), SEQ ID NO: 5 (IIHRGKPFQLEAVNYRWRCKNQN; Dp2-ECP(32-41))
[6]
  cellular uptake of peptide cargo: able to enter the cells

## ECP(32-41) D1: C-terminally truncated ECP(32-41) peptide, SEQ ID NO: 2 (NYRWRCKNQ; ECP(32-41)D1)
[7]; 37° C.
  entry into Beas-2B cells (minimal length requirement): entered Beas-2B cells

## ECP(32-41): 10 amino acid cell penetrating peptide from eosinophil cationic protein residues 32-41, SEQ ID NO: 1 (NYRWRCKNQN; ECP(32-41))
[7]; 37° C.
  entry into Beas-2B cells (minimal length requirement): entered Beas-2B cells
[7]; 5 μM, 37° C.
  intracellular localization: both cytoplasm and nucleus
[5]
  cytotoxicity / cell death: lacking

## ECP(32-41)D2: C-terminally truncated ECP(32-41) peptide, SEQ ID NO: 3 (NYRWRCKN; ECP(32-41)D2)
[7]; 37° C.
  entry into Beas-2B cells (minimal length requirement): could not

## FITC-Dp2: Dp2 peptide (SEQ ID NO: 4), the group 2 allergen of Dermatophagoides pteronyssinus, FITC-labeled (IIHRGKPFQLEAV; not fully specified (N-terminus); also: FITC label) [reference compound]
[6]
  cellular uptake of peptide cargo: only Dp2-ECP(32-41) was able to enter the cells

## FITC-ECP(32-41): fluorochrome-tagged peptide, FITC-labeled ECP(32-41) (SEQ ID NO: 1) ({FITC}-NYRWRCKNQN)
[7]; 5 μM, 5 min
  fluorescence signal inside the cells: a clear fluorescence signal inside the cells
[7]; 5 μM, up to 60 min
  fluorescence signal inside the cells: Stronger signal
[6]; 20 μM, trypsinized
  cellular uptake (fluorescent signal shift): significant uptake
